This note sets out measurements from US8901118B2, “Compounds and methods for kinase modulation, and indications therefor” (Plexxikon Inc., priority 2010, dated 2014).

For test [1], the system named is Osteoclast precursor cells. Briefly: Osteoclast differentiation assay (acid phosphatase readout). The class given is cell-based. The procedure:
Further, an osteoclast differentiation assay is used to assess the efficacy of Fms inhibitors for treating bone disease such as osteoarthritis. On day 0, Osteoclast Medium BulletKit (Lonza catalog #PT-8001, containing Media, FBS, L-Glutamine, PenStrep, RANKL, and M-CSF) media is thawed and the FBS, L-glutamine and PenStrep from the kit is added to 100 mL of Osteoclast Precursor Basal medium to provide the Osteoclast Precursor Growth Medium (OPGM). This is warmed to 37° C. Osteoclast precursor cells (Lonza catalog #2T-110) frozen in cryovial are warmed to 37° C. and transferred to a 50 mL conical tube. The cryovial is rinsed with OPGM and added dropwise to the conical tube of cells with swirling, then the volume is adjusted to 20-30 mL with addition of OPGM. The cells are centrifuged at 200×g for 15 minutes at room temperature and all but approximately 3 mL of supernatant is removed to a new conical tube. The cells are suspended in the remaining supernatant and the volume is adjusted to 10-15 mL with OPGM added dropwise with swirling. The cells are centrifuged at 200×g for 15 minutes at room temperature and all but approximately 1 mL of supernatant is removed. The cells are resuspended in the remaining supernatant, counted, and the volume adjusted with an appropriate amount of OPGM to provide approximately 1×10^5 cells/mL. A 0.1 mL aliquot of cells is added to each well of a 96-well plate. Compound to be tested is prepared in DMSO for plating at a high concentration of 2.5 mM, with 8 point 1:3 serial dilutions. A 1 μL aliquot of each compound dilution is added to a 96 well v-bottom polypropylene plate and 0.124 mL of OPGM is added to the compound. Then 50 μL at of the compound in OPGM is added to the osteoclast precursor cells in 96-well plate (providing highest test concentration of 5 μM). RANKL (2 μg) from the BulletKit is reconstituted in 1 mL of OPGM, then vortexed and centrifuged briefly. A 792 μL at aliquot of RANKL is added to 6 mL of OPGM and 50 μL at is added to low control wells. Then 76.6 μL M-CSF (10 μg/mL) from the BulletKit is added to the remaining 5.8 mL of OPGM/RANKL solution (4×RANKL/M-CSF/OPGM). A 50 μL at aliquot of this is added to the remaining wells, and the remainder is stored at 4° C. for later use. The plate is incubated at 37° C. for 6 days, then the remaining OPGM/RANKL/M-CSF solution is warmed to 37° C. The remaining approximately 198 μL is combined with 6 mL of OPGM. The media is aspirated from the osteoclast wells and 100 μL of RANKL/OPGM is added to the low controls. The remaining RANKL/OPGM is combined with the approximately 18.5 μL of remaining M-CSF. The remaining 4×RANKL/M-CSF/OPGM from day 0 is diluted to 1× and combined with the freshly prepared solution. A 0.1 mL aliquot of this is added to each osteoclast well and incubated for 37° C. for 1 day. The Acid Phosphatase kit (Cayman Chemical catalog #10008051) is warmed to room temperature. The assay buffer is diluted 5 mL with 45 mL of water. For each plate, two substrate tablets are dissolved in 4.5 mL of the assay buffer, mixing by vortex to break up the tablet. Stop solution is diluted 12 mL with 36 mL of water. In a tissue culture hood, 20 μL of each osteoclast well supernatant is transferred to a 96 well plate. A 30 μL aliquot of the substrate solution is added to each well and incubated at 37° C. for 20 minutes, then added 100 μL stop solution to each well. The absorbance of each well is read at 405 nm on Safire plate reader. The absorbance reading is plotted vs. concentration to provide the IC50 for each compound.

In test [2] the test system is BCR-FMS BaF3 cells. Briefly: Splenomegaly mouse model, BCR-FMS BaF3 cells. The test is classed as in vivo. To be noted: dosed once per day at 10 mg per kg. A digest of the protocol:
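Female nu/nu mice given 5×10^6 engineered BaF3 cells i.v. on day 1; compound in 1.0% Polysorbate 80/0.5% HPMC/2.5% DMSO dosed orally once (sometimes twice) daily, days 10-18. Spleens weighed 4 h after final dose; % spleen growth inhibition calculated versus vehicle control.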

As for `Cc1cnc2[nH]cc(Cc3ccc(NC4CCCCC4)nc3F)c2c1` [Compound P-3008, cyclohexyl-[6-fluoro-5-(5-methyl-1H-pyrrolo[2,3-b]pyridin-3-ylmethyl)-pyridin-2-yl]-amine], the IC50 – broadly, the concentration that inhibits the measured activity by half – in test [1] is under 100 nM.

`O=C(c1cnc(NC2CCC(F)(F)CC2)c(F)c1)c1c[nH]c2ncnc(NC3CC3)c12` [Compound P-4053, [4-(cyclopropylamino)-7H-pyrrolo[2,3-d]pyrimidin-5-yl]-[6-[(4,4-difluorocyclohexyl)amino]-5-fluoro-3-pyridyl]methanone]: the “% spleen growth inhibition, Fms” value in test [2] is 69%.
